For experiment [1], the system named is CDCP1 in LNCaP ADS cells. The following applies: DHT stimulation 16 h after 2 days in FAD.
Procedure: C. Left panel, Quantitative real time PCR analysis of CDCP1 mRNA levels in LNCaP grown in full media, full androgen depreviation (FAD) and stimulated with dihydrotestosterone (DHT 1 μM, 16 h) after grown for 2 days in FAD. Right panel, Western blot analysis of CDCP1, p-SRC, SRC, p-AKT, AKT, p-ERK1/2 and ERK1/2 in LNCaP grown in full media, FAD and stimulated with DHT (1 μM, 16 h) after grown for 2 days in FAD.
Tissue and cell lysates were prepared with RIPA buffer (Catalog #9806, Cell Signaling Technology) with PMSF (Phenylmethanesulfonyl fluoride; Catalog #329-98-6, Sigma). Protein concentrations of the lysates were measured by Pierce BCA Protein Assay Kit (Catalog #23225, Thermo Scientific). The lysates were then resolved by SDS-PAGE and immunoblotted with the indicated antibodies.
RNA was extracted using TRIzol® Plus RNA Purification Kit (Catalog #12183555, Life technologies). 1 μg of total RNA was used for cDNA synthesis using SuperScript® III Platinum® One-Step qRT-PCR Kit (Catalog #11732-020, Life technologies). […] All qRT-PCR data presented was normalized using GAPDH, HRPT or 18S rRNA.
Experiment [2] concerns LNCaP xenografts. The experiment can be described thus: LNCaP xenograft tumour growth in SCID mice. It is filed as in vivo, mouse. Particulars: single agent, LNCaP s.c. in SCID mice, one week; Enzalutamide 10 mg/kg. An excerpt: (§1) FIG. 7A. Left panel, Quantification of fold change in growth by crystal violet in LNCaP kept in full media and in LNCaP kept in full media and treated with mAb-CUB4. Right panel, Quantification of fold change in growth by crystal violet in LNCaP kept in FAD and in LNCaP kept in FAD and treated with mAb-CUB4. B. Left panel, Xenografts tumour growth (mm3) of LNCaP cell line untreated, treated with Enzalutamide, Immuno-liposome and treated with the combination of Enzalutamide and immuno-liposome. Right panel, quantification of fold change in protein levels of Cleaved Caspase 3 in LNCaP xenografts groups. C. Western blot analysis of CDCP1 expression, p-SRC and Cleaved Caspase 3 in LNCaP xenografts groups.
(§2) These findings were further validated in LNCaP-abl cells, an androgen insensitive cell line. […] Given the fact that CDCP1 expression is elevated by androgen deprivation, we postulated that targeting CDCP1 could serve as a powerful tool to treat prostate cancers treated with enzalutamide. […] Since senescence works as a double edge sword that may stimulate cancer cell growth in certain conditions, we decided to develop a novel anti-CDCP1 dual steal immunoliposome carrying doxorubicin (anti-CDCP1 ILs) to eliminate the CDCP1 overexpressing resistant cells.

In experiment [3] the test system is CDCP1 in LNCaP xenografts. The experiment can be described thus: Western blot of CDCP1 in LNCaP xenografts. It is filed as in vivo, mouse. The following applies: Enzalutamide alone.
Source text: as §1, §2

Consider `C[C@]12CCC(=O)C[C@@H]1CC[C@@H]1[C@@H]2CC[C@]2(C)[C@@H](O)CC[C@@H]12` [DHT, 5α-Dihydrotestosterone], for which the “CDCP1 expression and protein levels” value in experiment [1] was “reduced its expression and protein levels”. Consider `CNC(=O)c1ccc(N2C(=S)N(c3ccc(C#N)c(C(F)(F)F)c3)C(=O)C2(C)C)cc1F` [Enzalutamide, 4-[3-[4-cyano-3-(trifluoromethyl)phenyl]-5,5-dimethyl-4-oxo-2-sulfanylideneimidazolidin-1-yl]-2-fluoro-N-methylbenzamide], for which the “effect on tumor growth” value in experiment [2] was “minor effect on tumor growth”. Moreover, the “levels of CDCP1 by Western blot” value in experiment [3] is listed as “significant increased levels of CDCP1”.

The values are drawn from patent publication US20230174662A1, “METHODS OF TREATING CASTRATE-RESISTANT PROSTATE CANCER” (FONDAZIONE PER L'ISTITUTO ONCOLOGICO DI RICERCA (IOR), priority 2019, published 2023).
